Measurements from patent publication US20090202499A1, “Human Telomerase Reverse Transcriptase Peptides” (priority 2006, published 2009).
“Also recorded” adds a separate entry of the source. Where two headings read alike, the source gives them in different places.

Experiments:
B*5301 = B*5301 (Homo sapiens, UniProt P01889, A329T/A93T/A95T/C349S/D201E/D98Y/E176V/E187L/E204Q/E69T/G107R/I218V/K202T/L105A/L119I/N104I/Q94N/R106L/R155S/R180L/S101N/S121R/S35A/S48A/T118I/V127L/V306I/V36M/Y140S/Y91F); assay: HLA-B7 supertype binding assay
Procedure: (§1) Supertype analysis. Quantitative assays to measure the binding affinity of peptides to purified HLA B7-supertype molecules (B*0702, B*3501, B*5101, B*5301, B*5401) and B*0801 were based on the inhibition of binding of a radiolabeled standard peptide, and were performed as previously described (22, 35). Briefly, 1-10 nM of radiolabeled peptide was co-incubated at room temperature with 1 microM to 1 nM of purified MHC in the presence of 1-3 μM human beta2-microglobulin (Scripps Laboratories, San Diego, Calif.) and a cocktail of protease inhibitors. After a two-day incubation, binding of the radiolabeled peptide to the corresponding MHC class I molecule was determined by capturing MHC/peptide complexes on Greiner Lumitrac 600 microplates (Greiner Bio-one, Longwood, Fla.) coated with the W6/32 antibody, and measuring bound counts per minute (cpm) using the TopCount microscintillation counter (Packard Instrument Co.). […] Under the conditions utilized, where [label]<[MHC] and IC50≧[MHC], the measured IC50 values are reasonable approximations of the true Kd values.
(§2) HLA molecules are highly polymorphic posing problems to the identification of peptides, which could be used to cover the totality of the human population. However, HLA alleles can be clustered into a relatively small number of groups termed supertypes (21). The HLA-B7 supertype includes ten alleles (22). Here, we decided to test the selected hTRT peptides for their ability to bind five out of ten members of the HLA-B7 supertype (B*3501, B*5101, B*5301, B*5401) and B*0801. The B*0801 allele shares binding features with B*0702, although is not officially part of the HLA-B7 supertype. This analysis had the purpose to further narrow the selection of putative HLA-B7 immunogens based on supertype binding (Table V).

B*5101 = B*5101 (Homo sapiens, UniProt P01889, A329T/A93T/A95T/C349S/D138N/D201E/D98Y/E187L/E204Q/E69T/G107R/I218V/K202T/L105A/L119W/N104I/Q94N/R106L/R155S/R180L/S101N/S121T/S35A/S48A/V306I/V36M/Y195H/Y91F); assay: HLA-B7 supertype binding assay
Procedure: as §1, §2

B*5401 = B*5401 (Homo sapiens, UniProt P01889, A329T/C349S/D138N/D201E/E176V/E187T/E204Q/E69G/I76V/K202T/L119W/R155S/R180L/S121T/S35A/S48A/V127L/V306I/V36M/Y140L); assay: HLA-B7 supertype binding assay
Procedure: as §1, §2

B*3501 = B*3501 (Homo sapiens, UniProt P01889, A329T/A93T/A95T/C349S/D201E/D98Y/E176V/E187L/E204Q/E69T/I218V/K202T/L119I/Q94N/R155S/R180L/S121R/S35A/S48A/T118I/V127L/V306I/V36M/Y140S/Y91F); assay: HLA-B7 supertype binding assay
Procedure: as §1, §2

B*0801 = B*0801 (Homo sapiens, UniProt P01889, A93T/A95T/D138N/E176V/E187T/K202T/Q94N/R180D/S35A/V36M/Y33D/Y91F); assay: biochemical
B*0702 = B*0702 (Homo sapiens, UniProt P01889); assay: competition solid-phase radioimmunoassay on purified HLA molecule; assay type: binding
Procedure: as §1
Next, we assessed the actual binding avidity for HLA-B7 (HLA-B*0702). Two independent assays were used: binding stabilization assay on T2-B7 cells by flow cytometry (12) and a competitive solid-phase radioimmunoassay on immobilized purified HLA-B7 molecule (35).

[1] = test system: RMA-B7 cells pulsed with the homologous hTRT peptide; assay: peptide immunization of HLA-B7 Tg mice, 51Cr-release assay; assay type: in vivo; settings: 100 micrograms peptide + HBV helper peptide in IFA, s.c.
Procedure: FIG. 1. […] HLA-B7 Tg mice were vaccinated with 100 micrograms of individual hTRT peptide together with 120 micrograms of HBV helper peptide in IFA. Ten days after immunization, spleen lymphocytes were restimulated in vitro with peptide and fresh, irradiated syngeneic APC. Restimulations were performed on a weekly basis. A standard 4 hour ^51Cr-release assay was performed on day 5 after in vitro restimulation, using RMA-B7 cells pulsed with the homologous hTRT peptide as targets and an E:T ratio of 25:1. Results are expressed as the mean specific lysis plus or minus standard deviation of responder mice only, whose number is indicated in each panel. Tests were run in duplicate.
In vivo immunization procedures. Peptide immunization. HLA B7 transgenic mice (28) were injected s.c. at the base of the tail with 100 micro-grams of hTRT peptides along with 120 micro-grams of I-A^b MHC Class II helper peptide 128-140 of the hepatitis B virus core protein in incomplete Freunds' adjuvant as described previously (12). Long-term CTL lines were maintained in culture by weekly restimulation with irradiated, peptide-pulsed syngeneic spleen cells in RPMI-1640 medium containing 10% heat inactivated fetal bovine serum, 2 mM glutamine, 5×10^−5 M 2-Mercaptoethanol, 50 micro-grams/ml streptomycin, and 50 micro-grams/ml penicillin (complete medium) and supplemented with 40 IU/ml of recombinant human IL-2.
CTL assays. Both murine and human CTL were detected by the ^51Cr release assay performed as previously described (14). Briefly, HLA-B7^+ antigen presenting cells (RMA-B7 or T2-B7 cells) were labeled for 1 hr with 100 micro-Ci of Na2^51CrO4 (Perkin Elmer). Washed cells (5×10^3 per well) were mixed in 96-well plates in 100 micro-liters/well with each peptide (at 10 micro-grams/ml or lower concentration) and 100 micro-liters of the CTL effector cells (at various E:T ratio) in RPMI medium. The plates were incubated for 4-5 hrs at 37° C. (5% CO2). The supernatants were harvested and counted on a Wallac 1470 Wizard Gamma counter. The percent lysis was calculated as 100 (cpmexp−cpmspont)/(cpmmax−cpmspont).
In order to assign immunogenicity to each of the peptides and correlate this property with the binding characteristics and the scores of the predictive algorithms, we immunized HLA-B7 Tg mice (28). Ten to eleven days after immunization mice were sacrificed, the spleen harvested and splenocytes put in culture with LPS/Dextran activated APC, and tested in a 4 hour ^51Cr-release assay. As shown, only five out of seven peptides yielded a meaningful, specific CTL response even after a third cycle of in vitro restimulation (FIG. 1). All immunogenic peptides induced a response from the first in vitro restimulation and this response increased upon subsequent rounds of antigen restimulation. As noted the lysis of peptide-pulsed RMA-B7 target cells increased at each round of in vitro restimulation. No lysis occurred on RMA-B7 cells not pulsed with peptide. Thus, the in vivo results together with the actual measure of the avidity of HLA-B7 binding avidity distinguished two groups of 9mer hTRT peptides.

SMILES: CSCC[C@H](NC(=O)[C@H](CC(N)=O)NC(=O)[C@H](CCCNC(=N)N)NC(=O)CNC(=O)[C@H](C)N)C(=O)N[C@@H](CCCNC(=N)N)C(=O)N[C@@H](CCCNC(=N)N)C(=O)N[C@@H](CCCCN)C(=O)N[C@@H](CC(C)C)C(=O)O [p966]
- IC50 (B*5301): > 50 µM
- IC50 (B*5101): > 50 µM
- IC50 (B*5401): 34.1 µM
- IC50 (B*3501): > 50 µM
- IC50 (B*0801): > 50 µM
- IC50 (B*0702): > 50000 nM
- IC50 (B*0702; read-out: HLA class I binding capacity (IC50 nM) B*0702, Table V, purified MHC, radiolabeled standard peptide): > 50000 nM
- immunogenicity in vivo, CTL response after peptide immunization (in words) [1]: non-immunogenic; also recorded: poor immunogenicity; also recorded: repeated negative results
